The values that follow come from patent publication US20080299109A1, “MECHANISM OF ASTRICYTE-NEURON SIGNALING” (Korea Institute of Science and Technology, priority 2007, published 2008).

The test system of one test is synaptic NMDA receptors. As to the kind of experiment: Evoked NMDA EPSC current-voltage relationship in CA1 pyramidal cells. As to conditions: 30 nM thrombin, 0.2 mM Mg^2+. Format: cell-based, rat. The procedure: (§1) Young rats (Sprague-Dawley, age P15-P20) or mice (C57/B16, age P14-19) were deeply anesthetized with isoflurane and decapitated. The brain was rapidly removed and submerged in an ice-cold oxygenated artificial cerebrospinal fluid (ACSF) comprised of 130 mM NaCl, 24 mM NaHCO3, 3.5 mM KCl, 1.25 mM NaH2PO4, 1 mM CaCl2,3 mM MgCl2, and 10 mM glucose saturated with 95% O2/5% CO2, at pH 7.4.
Slices were placed on the stage of an upright microscope underneath a platinum and nylon restraining grid, and superfused with oxygenated ACSF at room temperature (23° C.), some experiments are performed at 34° C. by a temperature controller (TC-344B, Warner, Hamden). The standard ACSF recording solution was comprised of 130 mM NaCl, 24 mM NaHCO3, 3.5 mM KCl, 1.25 mM NaH2PO4, 1.5 mM CaCl2, 1.5 mM MgCl2, and 10 mM glucose saturated with 95% O2/5% CO2, at pH 7.4. […]
Synaptic responses were evoked by applying 0.1 ms current injection (1-100 μA) to a bipolar stimulating electrode placed in the stratum radiatum. Thrombin (Calbiochem) concentration was determined as described by Gingrich et al. (2000) using conversion of 1 U/ml=10 nM. […]
EPSCs were evoked by electrical stimulation of Schaffer collateral axons in the CA1 stratum radiatum, and recorded from CA1 pyramidal neurons under voltage clamp. […]

For another test, the system named is PAR1−/− mouse astrocytes. In words: Fura-2 intracellular Ca2+ imaging in cultured PAR1−/− astrocytes. As to conditions: 30 μM TFLLR, 30 nM thrombin, 10 μM ATP positive control. Format: cell-based. The protocol: Cultured astrocytes were prepared from P0-P3 postnatal mice obtained from KIST SPF. The cerebral cortex was dissected free of adherent meninges, minced, and dissociated into single cell suspension by trituration through a Pasteur pipette. All procedures involving the use of animals were reviewed and approved by the Emory University IACUC. Dissociated cells were plated onto either 12 mm glass coverslips or 6 well plates coated with 0.1 mg/ml poly-D-lysine. Cells were grown in a DMEM media (Gibco, cat# 11960-044) supplemented with 25 mM glucose, 10% heat-inactivated horse serum, and 10% heat-inactivated fetal bovine serum, 2 mM glutamine, and 1000 units/ml penicillin-streptomycin. Cultures were maintained at 37° C. in a humidified 5% CO2-containing atmosphere. Astrocyte cultures prepared in this way were previously determined by GFAP (glial fibrillary acidic protein) staining to be greater than 95% astrocytes (Nicole et al., 2005). In some experiments, the culture media was replaced 24 hours after plating with DMEM with all added components except glutamine, and cultures were maintained for 4 days before experimentation in glutamine-free media.
Cultured astrocytes were incubated with 5 µM Fura2-AM in […] pluronic acid (Molecular Probes) for 30 min at room temperature, and subsequently transferred to a microscope stage for imaging. […]

In another test the test system is CA1 pyramidal neurons. As to the kind of experiment: Ca2+ dye imaging of CA1 pyramidal neurons in hippocampal slices. Format: cell-based, rat. As to conditions: thrombin 30 nM, TFLLR 30 μM, trans-ACPD 100 μM, (S)-3,5-dihydroxyphenylglycine 30 μM. The procedure:
as §1
The external solution contained 1 μM TTX. Throughout the experiments, −5 mV voltage steps (15 ms duration) were applied at 30 sec intervals from a holding potential of −70 mV to continuously monitor the holding current, series resistance, and membrane input resistance. After entering whole-cell mode, the CA1 pyramidal cells in slices were maintained for 20 min to allow for dye filling before image acquisition using a Princeton Micromax camera.
After the baseline period, TFLLR (30-100 μM) was applied, and images were acquired every 3 sec with a 25 ms exposure to 450-490 nm light for each image. Ca^2+-dependent fluorescence intensity (520 nm) was measured in cell bodies and processes by using Axon Imaging Workbench (v2.2.1) and expressed as ratio image of (F-Fo)/Fo, where Fo is the fluorescence intensity before drug treatment.

thrombin: in the test on synaptic NMDA receptors, the “Mg^2+ block of NMDA EPSCs at −60 mV” value is “significantly less Mg^2+ block”. The “intracellular Ca^2+ concentration in PAR1−/− astrocytes” value in the test on PAR1−/− mouse astrocytes is on record as “did not cause an increase”. Also, the “somatic fluorescence of Ca^2+-sensitive dyes in CA1 pyramidal neurons” value with CA1 pyramidal neurons was “no significant increase”.
